# From ChEMBL document CHEMBL2176907, “Identification of multiple 5-HT₄ partial agonist clinical candidates for the treatment of Alzheimer's disease” (J Med Chem, 2012)
# Activity calls are given as the source filed them. No cut-off for these calls is given here.
# Experiments:
# [1] = molecular target: T1, 5-hydroxytryptamine receptor 4 (Homo sapiens, UniProt Q13639); test: biochemical
# Description: Displacement of [3H]GR113808 from human 5HT4D receptor expressed in HEK293 cells after 30 mins by liquid scintillation counting
# [2] = Intrinsic clearance in human liver microsomes; assay type: ADME, Microsome; conditions: read-out: CLH
# [3] = molecular target: CYP2D6 (Homo sapiens, UniProt P10635); test: Inhibition of CYP2D6 in human liver microsomes using dextromethorphan as substrate at 3 uM; assay type: ADME, Microsome; conditions: probe dextromethorphan
# [4] = molecular target: T1, 5-hydroxytryptamine receptor 4; test: Agonist activity at human 5HT4D receptor expressed in HEK293 cells assessed as cAMP production after 30 mins by HTRF assay relative to 5HT; assay type: functional, cell-based
# [5] = molecular target: T1, 5-hydroxytryptamine receptor 4; test: Agonist activity at human 5HT4D receptor expressed in HEK293 cells assessed as cAMP production after 30 mins by HTRF assay; assay type: functional, cell-based
# [6] = Apparent permeability from apical to basal side of RRCK cells at 2 uM after 2 hrs by transwell assay; assay type: ADME, cell-based, Canis lupus familiaris, MDCKII-LE; conditions: dog, MDCK
# [7] = system: MDR1; test: in vitro; conditions: dog, MDCK-MDR1
# Description: Efflux ratio of permeability from basal to apical to apical to basal side of MDCK cells expressing MDR1 at 2 uM after 5 hrs by transwell assay
# [8] = system: Rattus norvegicus; test: Gastrointestinal toxicity in male Sprague-Dawley rat assessed as mucosal injury at 100 mg/kg administered as repeated dose for 7 days measured up to 1 month; assay type: organism-based; design: dose 100 mg/kg; conditions: in vivo, 168 h
# [9] = system: Rattus norvegicus; test: Gastrointestinal toxicity in male Sprague-Dawley rat assessed as reduction in body weight at 100 mg/kg administered as repeated dose for 7 days measured up to 1 month; assay type: organism-based; design: dose 100 mg/kg; conditions: in vivo, 168 h
# [10] = system: Canis familiaris; test: Neurotoxicity in beagle dog assessed as convulsions at 30 mg/kg administered as repeated dose for 7 days measured up to 1 month; assay type: toxicity, organism-based, Canis lupus familiaris; design: dose 30 mg/kg; conditions: in vivo, 168 h
# [11] = molecular target: T1, 5-hydroxytryptamine receptor 4; test: biochemical; remark: listed apart in the source
# Description: Displacement of [3H]GR113808 from human 5HT4A receptor expressed in HEK293 cells after 30 mins by liquid scintillation counting
# [12] = molecular target: T2, 5-hydroxytryptamine receptor 4 (Rattus norvegicus, UniProt Q62758)
# Description: Displacement of [3H]GR113808 from 5HT4 receptor in rat striatal membrane after 30 mins by liquid scintillation counting
# [13] = system: Canis familiaris; test: Gastrointestinal toxicity in beagle dog assessed as emesis at 20 mg/kg administered as repeated dose for 7 days measured up to 1 month; assay type: organism-based, Canis lupus familiaris; design: dose 20 mg/kg; conditions: in vivo, 168 h
# [14] = system: Nucleic Acid; test: Ratio of drug uptake in CSF to free drug concentration in plasma in sc dosed Sprague-Dawley rat; assay type: ADME, organism-based; conditions: in vivo
# [15] = Oral bioavailability in rat; assay type: ADME, organism-based; conditions: in vivo
# [16] = system: Canis familiaris; test: Cardiotoxicity in beagle dog assessed as increase in systolic blood pressure at 0.05 mg/kg administered as repeated dose for 7 days measured up to 1 month; assay type: toxicity, organism-based, Canis lupus familiaris, Artery; design: dose 0.05 mg/kg; conditions: in vivo, 168 h
# [17] = system: Plasma; test: Free AUC (0 to 4 hrs) in sc dosed Sprague-Dawley rat plasma by LC-MS/MS analysis; assay type: ADME, organism-based; conditions: in vivo
# [18] = Clearance in iv dosed rat; assay type: ADME, organism-based; conditions: in vivo
# [19] = system: Rattus norvegicus; test: Displacement of [3H]SB207145 from 5HT4 receptor in sc dosed Sprague-Dawley rat striatal membrane incubated for 45 mins prior to [3H]SB207145-adminsitration measured after 15 mins; assay type: functional, organism-based; conditions: Striatum
# [20] = system: Rattus norvegicus; test: Gastrointestinal toxicity in Sprague-Dawley rat assessed as decrease in food intake administered as repeated dose for 7 days measured up to 1 month; assay type: organism-based; conditions: in vivo, 168 h
# [21] = molecular target: T2, 5-hydroxytryptamine receptor 4; remark: listed apart in the source
# Description: Agonist activity at rat 5HT4S receptor expressed in HEK293 cells assessed as increase in cAMP production after 30 mins by HTRF assay
# [22] = Intrinsic clearance in rat liver microsomes; assay type: ADME, Microsome; conditions: read-out: CLH
# [23] = system: Canis familiaris; test: Gastrointestinal toxicity in beagle dog assessed as decrease in food intake administered as repeated dose for 7 days measured up to 1 month; assay type: organism-based, Canis lupus familiaris; conditions: in vivo, 168 h
# [24] = system: Nucleic Acid; test: Ratio of drug uptake in CSF to free drug concentration in brain in sc dosed Sprague-Dawley rat; assay type: ADME, organism-based; conditions: in vivo
# [25] = molecular target: T2, 5-hydroxytryptamine receptor 4; remark: listed apart in the source
# Description: Agonist activity at rat 5HT4L receptor expressed in HEK293 cells assessed as increase in cAMP production after 30 mins by HTRF assay
# [26] = system: Brain; test: Free AUC (0 to 4 hrs) in sc dosed Sprague-Dawley rat brain by LC-MS/MS analysis; assay type: ADME, organism-based; conditions: in vivo
# [27] = molecular target: T1, 5-hydroxytryptamine receptor 4
# Description: Agonist activity at human 5HT4B receptor expressed in HEK293 cells assessed as increase in cAMP production after 30 mins by HTRF assay
# [28] = Oral bioavailability in dog; assay type: ADME, organism-based, Canis lupus familiaris; conditions: in vivo
# [29] = Intrinsic clearance in dog liver microsomes; assay type: ADME, Canis lupus familiaris, Microsome; conditions: read-out: CLH
# [30] = Ratio of free drug concentration in brain to free drug concentration in plasma in sc dosed Sprague-Dawley rat; assay type: ADME, organism-based; conditions: read-out: K(p,uu,brain)
# [31] = molecular target: T2, 5-hydroxytryptamine receptor 4; remark: listed apart in the source
# Description: Agonist activity at rat 5HT4E receptor expressed in HEK293 cells assessed as increase in cAMP production after 30 mins by HTRF assay
# [32] = system: Rattus norvegicus; test: Receptor occupancy of 5HT4 receptor in Sprague-Dawley rat brain at 5 mg/kg, sc up to 4 hrs; assay type: functional; conditions: route subcutaneous
# [33] = molecular target: T1, 5-hydroxytryptamine receptor 4; remark: listed apart in the source
# Description: Agonist activity at human 5HT4A receptor expressed in HEK293 cells assessed as increase in cAMP production after 30 mins by HTRF assay
# [34] = system: Rattus norvegicus; test: Gastrointestinal toxicity in female Sprague-Dawley rat assessed as reduction in body weight at 30 mg/kg administered as repeated dose for 7 days measured up to 1 month; assay type: organism-based; design: dose 30 mg/kg; conditions: in vivo, 168 h
# [35] = system: Rattus norvegicus; test: Procognitive activity in Sprague-Dawley rat assessed as increase in acetylcholine level in prefrontal cortex at 5 mg/kg, sc after 3 hrs by brain microdialysis relative to control; assay type: functional, organism-based; design: dose 5 mg/kg
# [36] = molecular target: T1, 5-hydroxytryptamine receptor 4; test: biochemical; remark: listed apart in the source
# Description: Displacement of [3H]GR113808 from human 5HT4E receptor expressed in CHO cells after 30 mins by liquid scintillation counting
# [37] = molecular target: T1, 5-hydroxytryptamine receptor 4; test: biochemical; remark: listed apart in the source
# Description: Displacement of [3H]GR113808 from human 5HT4B receptor expressed in HEK293 cells after 30 mins by liquid scintillation counting
# [38] = molecular target: T1, 5-hydroxytryptamine receptor 4; remark: listed apart in the source
# Description: Agonist activity at human 5HT4E receptor expressed in HEK293 cells assessed as increase in cAMP production after 30 mins by HTRF assay
# [39] = AUC (0 to 4 hrs) in sc dosed Sprague-Dawley rat CSF by LC-MS/MS analysis; assay type: ADME, organism-based; design: time < 4 hr, route subcutaneous
# [40] = Clearance in iv dosed dog; assay type: ADME, organism-based, Canis lupus familiaris; conditions: in vivo
# [41] = system: Rattus norvegicus; test: Gastrointestinal toxicity in female Sprague-Dawley rat assessed as mucosal injury at 30 mg/kg administered as repeated dose for 7 days measured up to 1 month; assay type: organism-based; design: dose 30 mg/kg; conditions: in vivo, 168 h
# T1 sequence (Q13639 whole entry): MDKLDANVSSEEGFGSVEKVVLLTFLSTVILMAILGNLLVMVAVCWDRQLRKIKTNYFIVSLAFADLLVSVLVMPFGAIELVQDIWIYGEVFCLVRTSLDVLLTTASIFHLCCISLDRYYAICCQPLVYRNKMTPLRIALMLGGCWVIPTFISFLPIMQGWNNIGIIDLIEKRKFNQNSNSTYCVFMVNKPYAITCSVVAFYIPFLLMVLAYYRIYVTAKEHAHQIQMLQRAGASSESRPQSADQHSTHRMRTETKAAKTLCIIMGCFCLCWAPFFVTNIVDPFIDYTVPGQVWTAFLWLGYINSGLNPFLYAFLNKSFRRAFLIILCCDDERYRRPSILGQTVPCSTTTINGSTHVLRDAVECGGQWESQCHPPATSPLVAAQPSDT
# Sequence of CYP2D6 (P10635 whole entry): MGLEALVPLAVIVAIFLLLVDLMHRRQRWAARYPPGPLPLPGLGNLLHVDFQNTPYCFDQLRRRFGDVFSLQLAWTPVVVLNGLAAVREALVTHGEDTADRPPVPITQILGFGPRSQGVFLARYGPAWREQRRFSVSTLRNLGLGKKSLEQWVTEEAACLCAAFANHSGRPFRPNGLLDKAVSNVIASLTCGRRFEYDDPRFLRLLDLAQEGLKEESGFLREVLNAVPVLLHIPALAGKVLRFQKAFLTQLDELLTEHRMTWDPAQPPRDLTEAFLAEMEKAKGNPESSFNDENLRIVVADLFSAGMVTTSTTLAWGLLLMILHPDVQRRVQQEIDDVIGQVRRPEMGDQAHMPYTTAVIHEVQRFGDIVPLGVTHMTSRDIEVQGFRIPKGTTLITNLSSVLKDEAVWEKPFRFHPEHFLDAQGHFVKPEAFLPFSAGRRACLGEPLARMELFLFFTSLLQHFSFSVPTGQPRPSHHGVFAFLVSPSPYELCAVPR
# T2 sequence (Q62758 whole entry): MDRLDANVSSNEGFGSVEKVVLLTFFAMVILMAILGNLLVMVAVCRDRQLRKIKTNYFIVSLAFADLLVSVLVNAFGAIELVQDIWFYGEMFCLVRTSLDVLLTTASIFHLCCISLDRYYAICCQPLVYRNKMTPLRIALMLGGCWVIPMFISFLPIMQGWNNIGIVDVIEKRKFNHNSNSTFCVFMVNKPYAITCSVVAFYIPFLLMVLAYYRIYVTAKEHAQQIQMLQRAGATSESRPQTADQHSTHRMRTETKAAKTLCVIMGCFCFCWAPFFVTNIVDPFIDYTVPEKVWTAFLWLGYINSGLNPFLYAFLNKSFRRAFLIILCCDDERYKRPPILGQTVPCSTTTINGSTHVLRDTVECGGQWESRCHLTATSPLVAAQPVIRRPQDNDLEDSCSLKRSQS
compound,measurement,setting,value
CC(C)COc1cccc2onc(OCC3CCN(CC4(O)CCOCC4)CC3)c12,Ki,[1],0.36 nM
same,CLint scaled,[2],72 mL/min/kg
same,inhibition at 3 µM,[3],54%
same,Emax,[4],85%
same,EC50,[5],0.98 nM
same,"Papp A→B at 2 h, 2 µM",[6],3.8 ×10⁻⁶ cm/s
O[C@@H]1CC[C@@H](Oc2cccc3onc(OCC4CCN(CC5(O)CCOCC5)CC4)c23)C1,Ki,[1],0.5 nM
same,"efflux ratio at 5 h, 2 µM",[7],2.2
same,CLint scaled,[2],56 mL/min/kg
same,inhibition at 3 µM,[3],37%
same,Emax,[4],28%
same,EC50,[5],0.4 nM
same,"Papp A→B at 2 h, 2 µM",[6],15 ×10⁻⁶ cm/s
CCCCN1CCC(COc2noc3cccc(OC4CCCC4)c23)CC1,Ki,[1],0.74 nM
same,CLint scaled,[2],77 mL/min/kg
same,inhibition at 3 µM,[3],79%
same,Emax,[4],81%
same,EC50,[5],1.2 nM
same,"Papp A→B at 2 h, 2 µM",[6],2.4 ×10⁻⁶ cm/s
CC1(C)C(=O)N(C(=O)NCC2CCN(CC3(O)CCOCC3)CC2)c2cc(F)ccc21 [PF-03382792],Activity,[8],Toxic
same,Ki,[1],2.7 nM
same,Activity,[9],Toxic
same,Activity,[10],Toxic
same,Ki,[11],4.6 nM
same,Ki,[12],3.9 nM
same,Activity,[13],Toxic
same,Ratio,[14],0.8
same,bioavailability,[15],100%
same,Activity,[16],Toxic
same,fAUC,[17],1.669 µM·h
same,clearance,[18],104 mL/min/kg
same,Activity,[19],Dose-dependent effect
same,Activity,[20],Toxic
same,EC50,[21],1.15 nM
same,"efflux ratio at 5 h, 2 µM",[7],1.37
same,CLint scaled,[22],42.7 mL/min/kg
same,Activity,[23],Toxic
same,CLint scaled,[2],25.4 mL/min/kg
same,Ratio,[24],2.1
same,EC50,[25],1.52 nM
same,Emax,[4],35%
same,fAUC,[26],2.922 µM·h
same,EC50,[5],0.9 nM
same,EC50,[27],1.3 nM
same,bioavailability,[28],51%
same,CLint scaled,[29],35.4 mL/min/kg
same,Kp uu,[30],1.8
same,EC50,[31],2.15 nM
same,Occ,[32],>90%
same,EC50,[33],0.8 nM
same,Activity,[34],Toxic
same,Activity,[35],Active
same,Ki,[36],6.3 nM
same,Ki,[37],6.8 nM
same,EC50,[38],1.2 nM
same,"Papp A→B at 2 h, 2 µM",[6],> 27 ×10⁻⁶ cm/s
same,AUC(0-t) at 4 h,[39],1.38 µM·h
same,clearance,[40],12.4 mL/min/kg
same,Activity,[41],Toxic
CCCCN1CCC(COc2noc3cccc(OCC(C)(C)C)c23)CC1,Ki,[1],5.2 nM
same,inhibition at 3 µM,[3],93%
same,Emax,[4],95%
same,EC50,[5],6.3 nM
